Results on one molecule are retold here after patent publication US8445217B2, “Free solution measurement of molecular interactions by backscattering interferometry” (Vanderbilt University, priority 2007, dated 2013).

Test [1] addresses T1, Calmodulin (CaM) (Homo sapiens, UniProt P0DP23).
T1 construct: purchased Sigma, St. Louis, Mo
Kind of test: BSI free-solution CaM-Ca^2+ interaction. In kind it is binding. As to conditions: for Kd: 5 μM CaM, pH 7.5, 25° C. The protocol:
Homogeneous, label-free CaM-Ca^2+ interactions are quantified with BSI by real-time monitoring the sequential reactions of a constant concentration of 5 μM CaM with Ca^2+ solutions increasing in concentrations from 12.5-100 μM (FIG. 24A). Here CaM was buffered at pH=7.5 with 0.1M HEPES and 0.1M KCl, with its concentration held constant at 5 μM. In this aspect, the CaM solution contained a small amount of EGTA to chelate any free Ca^2+. The reactions were carried out in the same microfluidic chip molded in PDMS with the temperature fixed at 25° C. A 5 μM CaM solution and a 100 μM Ca^2+ solution both consisting of excess EGTA (i.e., 400 μM), served as the control.
Kinetic analysis using a single exponential gives rise to a plot of observed rates versus Ca^2+ concentration that is linear. A least squares analysis of the linear plot yields the slope, intercept, and their respective errors. […] Without wishing to be bound by theory, it is believed that the disparity in these two values was due likely to a less than optimal approach to fitting the kinetic data and the RI background present from unreacted ligand, particularly at high concentrations.
These experiments were conducted at 25±0.01° C. maintained by a thermoelectric temperature controller (MELCOR, Trenton, N.J.) coupled to a Peltier device. Binding experiments were monitored in real-time at frequencies ca. 50-100 Hz.
CaM was buffered at a pH=7.5 with 0.1M HEPES and 0.1M KCl with its concentration held constant throughout the experiment at 5 μM. The CaM solution contained a small amount of EGTA to chelate any free Ca^2+. BSI monitored, in real-time, the sequential reactions of 5 μM CaM with concentrations of Ca^2+ ranging from 12.5-100 μM.

Test [2] has as its target T1, Calmodulin (CaM). The conditions noted are these: literature; read-out: published Kd values, calmodulin-calcium ion interaction; cited from earlier work.

Read-outs that look alike come from different tables or passages of the source. Where only a bound is given, the exact number is not on record here.

As to `[Ca+2]` [Ca^2+], the “control: change in signal above that observed in the absence of excess EGTA at equivalent concentrations” value on Calmodulin (CaM) [1] (5 μM CaM and 100 μM Ca^2+, both with excess EGTA (400 μM)) was under 3%. For the same molecule, the Kd on Calmodulin (CaM) [1] (12.5-100 μM Ca^2+, read-out: Kd CaM-Ca^2+, kinetic analysis (observed rates versus Ca^2+ concentration)) is 3.36 µM; at Calmodulin (CaM) [1] (read-out: Kd CaM-Ca^2+, steady-state values analysed by Prism), 17.8 µM; on Calmodulin (CaM) [2] it was 1 to 10 µM.
